# Data as given in patent US10285961B2, “Organic acids as agents to dissolve calcium minerals in pathological calcification and uses thereof” (University of Houston System, priority 2014, dated 2019).
# “Also recorded” adds a separate entry of the source.
# Legend:
# [1] = Calcium ion selective electrode (ISE) measurement of COM crystallization kinetics; details: synthetic versus extracted hydroxycitrate, slope of free calcium ion depletion relative to control
# Procedure: A calcium ion selective electrode (ISE, ThermoScientific with Orion 9720BNWP Ionplus® electrode) was used to measure the effect of organic growth modifiers (OGMs) on the kinetics of COM crystallization which measures the concentration of free calcium ions in solution. Samples were prepared in the similar manner as COM bulk crystallization. Final solution composition was set to be 0.5 mM CaCl2: 0.5 mM Na2C2O4: 150 mM NaCl and the measurements were performed at room temperature. During ISE measurements, the stir rate was adjusted to 1200 rpm to minimize the induction time for nucleation. OGM efficacy was measured by calculating the temporal depletion of calcium ion concentration (ppm range). The data was normalized by subtracting the concentration of the initial time point from each time point. The rate of depletion was calculated by measuring the initial slope of the crystal growth curve. The efficacy of synthetic and extracted hydroxycitrate was assessed using the percent inhibition, which was calculated by comparing the reduced slopes for each OGM relative to that of the control (i.e., absence of OGM). Prior to ISE measurements, the electrode was calibrated using a standard calcium solution (0.1 M, Orion Ion Plus), which was diluted with deionized water to three concentrations: 10^−4, 10^−3 and 10^−2 M. The ionic strength of each solution was adjusted using a standard solution (ISA, Thermo Scientific), which was added in a 1:50 volume ratio of ISA-to-standard.
# Additionally, the inhibitory efficacy of synthetic and extracted HCA was observed. An ion selective electrode measures the free calcium ion in the solution in the course of experiments. The efficacy of both HCA molecules was measured by calculating the temporal depletion of free calcium ion concentration in COM growth solutions. The data was normalized by subtracting the concentration of the initial time point from all time points. The rate of depletion was calculated by measuring the initial slope of the crystal growth curve. The efficacy of the synthetic and extracted HCA was assessed using the percent inhibition, which was calculated by comparing the slopes for each molecule relative to that of the control (i.e., in the absence of HCA).
# [2] = Upper limit of metastability of urine from patients with kidney stones; design: species or system human; details: for inhibition: calcium oxalate molar product at the point of crystallization: 8 urine samples, 37° C. for 4 hours
# Procedure: The crystal inhibition activity of hydroxycitrate in human urine was determined using measurement of upper limit of metastability. For this experiment, 8 urine samples from patients with kidney stones were used. The urine was either spiked with a known amount of an inhibitor or spiked with saline as control. Ten aliquots of each urine sample were added to the wells of a microtiter plate and increasing amounts of oxalate was added. The plates were incubated at 37° C. for 4 hours and then turbidity was measured using an enzyme-linked immunosorbent assay (ELISA) plate reader. The well with the lowest amount of oxalate in which increased turbidity is noted is considered the crystallization point. Multiplying the calcium concentration of the urine and the oxalate concentration (original oxalate plus the amount of oxalate added) at the point of crystallization provides a rough measure of saturation at the point of crystallization.
# The upper limit of metastability assay was also used to compare the inhibitory activity of hydroxycitrate to that of other tricarboxyllic acids: citrate, isocitrate, and tricarballylate. […] Each of tricarboxyllic acids was added to urine samples from stone forming patients to provide a final concentration of 2 mM. The data are expressed as the increase of the calcium oxalate molar product at crystallization compared to the control urine sample without any inhibitor added.
# [3] = In situ AFM of growth hillocks on the (100) surface of COM crystals
# Procedure: Atomic force microscopy (AFM, Bruker Multimode 4) was used to study the COM crystal surface topography at a nanometer length scale. Samples were mounted on a disk covered with a thin layer of thermally curable epoxy (MasterBond EP21AOLV). The epoxy was partially cured in an oven for ca. 20 min at 60° C. prior to transferring the crystals obtained from bulk crystallization. The crystals were immobilized on the epoxy with the or [010] direction oriented normal to the specimen surface by placing the sample in an oven at 60° C. for two to three hours to completely cure the epoxy. The cantilevers used in this study were silicon nitride probes with gold reflex coating and a spring constant of 0.15 N/m (Olympus, TR800PSA). AFM was also employed to observe the kinetics of crystal growth in supersaturated calcium oxalate solutions by monitoring the velocity of step advancement on the (010) surface and (100) surface of COM crystals in real time. […]
# The interaction between hydroxycitrate and the (100) surface of COM crystals was also observed using atomic force microscopy. The growth of hillocks by screw dislocation on the (100) surface of COM crystals were measured in real time in the absence and in the presence of 0.25 μg/mL HCA (FIGS. 4A-4F). […]
# [4] = Exposure of fully grown COM crystals to HCA: optical microscopy and AFM surface roughness; details: HCA (100 μg/mL) introduced at the end of crystallization period (3 days); optical micrographs
# Procedure: Crystallization was carried out in a 20-mL glass vial by dissolving NaCl in deionized water then adding 0.7 mL of 10 mM CaCl2 stock solution which was prepared in advance. The sample vial was place in an oven set to 60° C. for one hour to ensure the crystallization was performed at 60° C. Subsequently 0.7 mL of […] Na2C2O4 stock solution was added to the solution dropwise while the solution was stirred at 400 rpm. To investigate the effect of hydroxycitrate […] COM crystallization, prepared hydroxycitrate stock solution was added to the solution dropwise at the end of three day crystallization period. A clean glass slide (ca. 1.3×1.3 cm^2) was placed at the bottom of the glass vial to readily collect the crystals prior to placing the vial in the oven. Final solution composition was set to be 0.7 mM CaCl2: 0.7 mM Na2C2O4: 150 mM NaCl and the amount of deionized water was adjusted to set the final volume to 10 mL. Crystallization was performed at 60° C. for three days without agitation. The glass slide was removed from the solution and dried at room temperature prior to analysis.
# Morphology of COM crystals prepared in the absence and in the presence of OGMs were assessed and compared under optical microscope (Leica DM2500-M). Images were obtained in brightfield using reflectance. […]
# [5] = In situ AFM of growth hillocks on the (010) face of COM crystals (step velocity)
# Procedure: Atomic force microscopy (AFM, Bruker Multimode 4) was used to study the COM crystal surface topography at a nanometer length scale. Samples were mounted on a disk covered with a thin layer of thermally curable epoxy (MasterBond EP21AOLV). The epoxy was partially cured in an oven for ca. 20 min at 60° C. prior to transferring the crystals obtained from bulk crystallization. The crystals were immobilized on the epoxy with the or [010] direction oriented normal to the specimen surface by placing the sample in an oven at 60° C. for two to three hours to completely cure the epoxy. The cantilevers used in this study were silicon nitride probes with gold reflex coating and a spring constant of 0.15 N/m (Olympus, TR800PSA). AFM was also employed to observe the kinetics of crystal growth in supersaturated calcium oxalate solutions by monitoring the velocity of step advancement on the (010) surface and (100) surface of COM crystals in real time. The experiment was designed to assess the effects of a range of concentration of hydroxycitrate on step growth using a fluid cell (Bruker, MTFML) to produce an environment that mimics in situ crystallization. The fluid cell had two ports for inlet and outlet flow to maintain constant supersaturation during AFM measurements. A silicon O-ring was used to ensure no liquid leakage would occur while solutions were being continuously replenished. A dual syringe pump (CHEMYX, Fusion 200) was used to flow the solutions into the fluid cell.
# Hydroxycitrate has four stereoisomers, […], (2S,3R), (2S,3S), and (2R,3R) (FIG. 1). In order to investigate the interaction between hydroxycitrate and COM crystal surface at a molecular level, atomic force microscopy was utilized. The growth of hillocks by screw dislocation on the (010) face of COM crystals were measured in real time in the absence and in the presence of 0.1 μg/mL HCA (FIGS. 2A-2F). Growth hillocks on (010) face are bounded by {021} and {12-1} faces. […] The temporal advancement of steps (i.e., step velocity) of the growth hillock in the absence and in the presence of a wide range of concentration of HCA was measured (FIGS. 3A-3B). […] These phenomena are conventional modes of crystal growth inhibition. […] This phenomenon confirms the role of HCA as a dissolving agent.
# [6] = design: species or system human; details: in vivo
# Procedure: In order for hydroxycitrate to have a direct effect on calcium oxalate stone formation, it must be excreted in the urine. As preliminary evidence of renal excretion in humans, over the counter hydroxycitrate supplements (trade name Super CitraMax) was administered to a normal healthy subject at a dose of 4.3 mmoles of hydroxycitrate two times a day (total daily dose of 8.6 mmoles) for three days. The standard dose recommended by the manufacturer is 12.9 mmoles per day. On the third day a 24 hour urine collection was performed. Hydroxycitrate excretion was measured using ion chromatography. […] Peak 1 is urine citrate, peak 2 is hydroxycitrate. Using a standard curve created using a high purity hydroxycitrate standard, hydroxycitrate excretion was calculated to be 1.28 mmoles per day. Thus, approximately 15% of the oral hydroxycitrate dose was excreted in the urine.
# [7] = 2 mM final concentration, comparison of tricarboxylic acids
compound,measurement,setting,value
(−)-Hydroxycitric acid calcium salt [extracted HCA],efficacy (percent inhibition) on COM crystallization,[1]; calcium salt,comparable
same,efficacy (percent inhibition) on COM crystallization,"[1]; listed as cHCA, calcium salt",comparable effect
"O.O=C([O-])CC(O)(C(=O)[O-])C(O)C(=O)[O-].[K+].[K+].[K+] (stereo not shown) [synthetic HCA, potassium hydroxycitrate tribasic monohydrate]",efficacy (percent inhibition) on COM crystallization,"[1]; listed as sHCA, monohydrate",comparable effect
same,efficacy (percent inhibition) on COM crystallization,[1]; monohydrate,comparable
"O=C(O)CC(CC(=O)O)C(=O)O [tricarballylate, reference compound]",difference of inhibition versus hydroxycitrate,[2]; [7],reached statistical significance
"O=C(O)CC(O)(C(=O)O)C(O)C(=O)O (stereo not shown) [HCA, hydroxycitrate]",surface features of COM crystal,[3]; 0.1 μg/mL HCA as printed,dissolves the COM crystal surface
same,surface features of COM crystal,[3]; 0.25 μg/mL HCA,etch pits start to form at step edges; also recorded: rapid formation of etch pits at the edge of steps
same,overall crystal morphology,[4],remained the same as that of the control; also recorded: maintained the same overall morphology
same,inhibition: calcium oxalate molar product at the point of crystallization,[2]; 1 mM final concentration,greater inhibition than the control urine
same,inhibition: calcium oxalate molar product at the point of crystallization,[2]; 2 mM final concentration,greater inhibition than the 1 mM hydroxycitrate
same,increase of the calcium oxalate molar product at crystallization compared to the control urine,[2]; [7],higher levels of inhibition compared to the other inhibitors
same,surface features of COM crystal,[5]; 0.1 μg/mL HCA,signs of dissolution; also recorded: dissolves the COM crystal surface
same,step velocity of growth hillocks,"[5]; <021> and <12-1> directions, low concentration of HCA (<0.06 μg/mL)",decrease; also recorded: slightly decreases
same,step velocity of growth hillocks,[5]; high concentration of HCA (>0.15 μg/mL),nearly zero; also recorded: ceases to zero
same,step velocity of growth hillocks,[5]; intermediate concentration (0.06 μg/mL<CHCA<0.15 μg/mL),negative velocity; also recorded: negative values
same,fraction of the oral hydroxycitrate dose excreted in the urine,[6],approximately 15%
